{"source": "paper PMC10541198", "about": "“Specific quinone reductase 2 inhibitors reduce metabolic burden and reverse Alzheimer’s disease phenotype in mice” (The Journal of Clinical Investigation, 2023)", "system": "Amyloid β", "experiment": "IHC of amyloid β in 5xFAD brain sections", "assay_type": "in vivo, mouse", "conditions": "for Amyloid β normalized volume (individual mice): CA1, 5xFAD 1 month; for Figure 9B, IHC signal / Sup. Fig. 6-1B, IHC signal: individual animals; for Amyloid β vs vehicle: cortex, 5xFAD 1 month", "source_text": "Following the behavioral experiments, we assessed brain pathologies associated with AD present in the 5xFAD mice ([37]). Therefore, 5 days following the last behavioral experiment, and 1 month after the start of YB-537 consumption, mice were sacrificed, and coronal brain sections were used for IHC. Since the CA1 region of the hippocampus is affected during AD pathogenesis ([37]), and this brain region is involved in the behavioral paradigms used here, we acquired images of CA1. This was done with an Olympus IX83 confocal microscope using the same settings, antibodies, and exposures in all mice. Images were analyzed using Imaris (Bitplane; see methods). For each mouse, 3 coronal sections were used per antibody. In each section, the same region of CA1 was acquired, using the same image frame size and resolution, at all possible depths of the section — using a Z-stack of the whole section — to allow measurement of the fluorescent antibody marker volume, which was normalized to the brain volume from which it was taken. First, we measured oxidative stress, as indicated by 4-HNE ([38]) (Abcam, ab48506).\nPerfused and fixed brain slices were blocked with 10% normal donkey serum (DNS) and 0.2% triton (Sigma-Aldrich) in PBS. Antibodies, including 4-HNE (AbCam, ab48506), Iba1 (AbCam, ab5076), AT-8 (Thermo, MN1020), Amyloid β (AbCam, ab201060), diluted in PBS with 10% DNS, were incubated at 4°C overnight. Secondary antibodies including donkey-anti-goat Alexa Fluor 568 (AbCam, ab175704), donkey-anti-mouse Cy 5 (Jackson Immuno Research, 715-175-151), and donkey-anti-rabbit DyLight 488 (AbCam, ab98488) all diluted 1:500 in PBS with 1% BSA, were applied to the slices at RT for 2 hours the next day. Slices were mounted onto glass slides using DAPI containing Vectashield (H-1200). Images were taken using a confocal microscope (Olympus IX83). Three slices were used per mouse per antibody. Tiling images of the dorsal CA1 and cortex (Bregma: –1.58mm to –2.30mm) were taken using ×20 objective, acquiring a Z-stack of the whole section. Analysis of the images was done blind by an experimenter unaware of the experimental conditions or details, using Imaris (Bitplane) software. A surface reconstruction module was used to extract the data as volumes of the used markers (4-HNE, phospho-tau, amyloid β, GFAP, and Iba1). Marker volume and intensity were normalized to the corresponding brain volume. The normalized value was averaged for each triplicate and presented here. […]\nBrains were then briefly removed and placed in chilled, 4% PFA for 48 h, f oll owe d by immersion in 30% sucrose in 0.1 M PBS for a furt her 48 h. Bra i ns wer e t h e n stored at -80°C, until t he y were sliced into 40µm coronal sections usinga Lei ca CM 1950cryostat. Sli ces were then washed x3 in PBS and bl oc ke d for 1 h at RT using 10% normal donkey serum (DNS) and 0.2% triton (Sigma-Aldrich) in PBS. Antibodies, including 4- HNE (1:500, AbCam, ab48506), Iba1 (1:2,000, AbCam, ab5076), GFAP (Abcam, ab53554), phospho- tau (1:1,000, Thermo, MN1020) and amyloid β (1:1,000, AbCam, ab201060) diluted in PBS with 10% DNS were incubated at 4°C overnight. The next day, the slices were washed x3 times in PBS, and secondary antibodies including donkey anti goat A l e x a Fluor 568 (AbCam, ab175704), donkey anti-mouse Cy 5 (Jackson Immuno Research, 715- 175- 151) and donkey anti-rabbit DyLight 488 (AbCam, ab98488) all diluted 1:500 in PBS with 1% BSA, were applied to the slices at RT for 2 h. Following the incubation, the slices were washed x3 times in PBS, mounted onto gl ass slides, were uniformly covered in DAPI containing Vectashield (H-1200) and coverslips were a dde d. […]", "note": "Several values for one entry are separate records, joined by “and”; a condition that tells them apart may be missing. Identical values can stand only once.", "data": [{"smiles": "Cc1ccc(-c2cn3cccc(C)c3n2)cc1S(=O)(=O)N1CCNCC1", "note": "[YB-537]", "values": [{"measurement": "Amyloid β normalized volume (individual mice)", "setting": "Females", "result": "0.0438 and 0.0503 and 0.0630 and 0.0517 and 0.0415 and 0.0377 and 0.0224"}, {"measurement": "Amyloid β normalized volume (individual mice)", "setting": "Males", "result": "0.0456 and 0.0411 and 0.0568 and 0.0482 and 0.0215 and 0.0315 and 0.0453 and 0.0211 and 0.0327"}, {"measurement": "Amyloid β normalized volume (individual mice)", "setting": "Males + Females", "result": "0.0438 and 0.0503 and 0.0630 and 0.0315 and 0.0453 and 0.0211 and 0.0327 and 0.0456 and 0.0411 and 0.0568 and 0.0482 and 0.0215 and 0.0517 and 0.0415 and 0.0377 and 0.0224"}, {"measurement": "Figure 9B, IHC signal", "setting": "Cortex", "result": "0.0014 and 0.0009 and 0.0012 and 0.0011 and 0.0040 and 0.0050 and 0.0062 and 0.0018 and 0.0015"}, {"measurement": "Sup. Fig. 6-1B, IHC signal", "setting": "Females", "result": "0.0046 and 0.0222 and 0.0056 and 0.0307 and 0.0209 and 0.0044 and 0.0060"}, {"measurement": "Figure 9B, IHC signal", "setting": "Hippocampus", "result": "0.0022 and 0.0020 and 0.0026 and 0.0016 and 0.0029 and 0.0072 and 0.0052 and 0.0013"}, {"measurement": "Sup. Fig. 6-1B, IHC signal", "setting": "Males", "result": "0.0033 and 0.0053 and 0.0092 and 0.0140 and 0.0194 and 0.0050 and 0.0040 and 0.0079 and 0.0183"}, {"measurement": "Amyloid β vs vehicle", "setting": "females", "result": "unchanged"}, {"measurement": "Amyloid β vs vehicle", "setting": "males", "result": "insignificantly reduced"}, {"measurement": "Amyloid β vs vehicle", "setting": "total population", "result": "not significantly reduced"}]}]}
